From patent publication US5847092A (Zambon Group S.p.A., priority 1994, dated 1998)
≈ marks a conversion by molar mass, not a printed value.

Experiments:
Assay in all cases: In vitro antibacterial activity, MIC, broth microdilution
Format in all cases: cell-based
[1] = system: Klebsiella pneumoniae ZC 2; conditions: K. pneumoniae ZC 2, MHB, 37° C., 18 hours; for MIC: Klebsiella pneumoniae, ZC2, read-out: minimum inhibiting concentration MIC
Method: (§1) a) In vitro antibacterial activity The determination of the minimum inhibiting concentrations (MIC), with respect to Gram-positive and Gram-negative bacteria was carried out through the micromethod of gradual broth dilution in double series [National Committee for Clinical Laboratory Standards, 1990; Methods for dilution antimicrobial susceptibility tests for bacteria that grow aerobically; Approved standards […], Villanova, Pa.], by using Mueller Hinton Broth (MHB) as a culture medium. In the case of […] bacteria, horse serum at 5% (Streptococcus pneumoniae and Streptococcus pyogenes) was added to the medium. Roxithromycin and Clarithromycin [The Merck Index, XI Ed., No. 8253 and 2340, respectively] were used as reference macrolides. MIC, expressed as (μg/ml), were determined after incubation of the microplates at 37° C. for 18 hours, evaluating the lowest antibiotic concentration enabling the inhibition of bacterial development.

[2] = system: Streptococcus pneumoniae BS 4; conditions: S. pneumoniae BS 4, MHB + 5% horse serum, 37° C., 18 hours; for MIC: Streptococcus pneumoniae, BS4, read-out: minimum inhibiting concentration MIC
Method: as §1

[3] = system: Staphylococcus aureus PV 14; conditions: S. aureus PV 14, MHB, 37° C., 18 hours; for MIC: Staphylococcus aureus, PV14, read-out: minimum inhibiting concentration MIC
Method: as §1

[4] = system: Escherichia coli ATCC 25922; conditions: E. coli ATCC 25922, MHB, 37° C., 18 hours; for MIC: Escherichia coli, ATCC25922, read-out: minimum inhibiting concentration MIC
Method: as §1

[5] = system: Enterococcus faecalis ATCC 29212; conditions: E. faecalis ATCC 29212, MHB, 37° C., 18 hours; for MIC: Enterococcus faecalis, ATCC29212, read-out: minimum inhibiting concentration MIC
Method: as §1

[6] = system: Streptococcus pyogenes A 26; conditions: S. pyogenes A 26, MHB + 5% horse serum, 37° C., 18 hours; for MIC: Streptococcus pyogenes, A26, read-out: minimum inhibiting concentration MIC
Method: as §1

[7] = system: Streptococcus pyogenes C 203; conditions: S. pyogenes C 203, MHB + 5% horse serum, 37° C., 18 hours; for MIC: Streptococcus pyogenes, C203, read-out: minimum inhibiting concentration MIC
Method: as §1

[8] = system: Streptococcus pneumoniae BS 3; conditions: S. pneumoniae BS 3, MHB + 5% horse serum, 37° C., 18 hours; for MIC: Streptococcus pneumoniae, BS3, read-out: minimum inhibiting concentration MIC
Method: as §1

Row | Compound | MIC [1] | MIC [2] | MIC [3] | MIC [4] | MIC [5] | MIC [6] | MIC [7] | MIC [8] | minimum inhibiting concentration MIC [1] | minimum inhibiting concentration MIC [2] | minimum inhibiting concentration MIC [3] | minimum inhibiting concentration MIC [4] | minimum inhibiting concentration MIC [5] | minimum inhibiting concentration MIC [6] | minimum inhibiting concentration MIC [7] | minimum inhibiting concentration MIC [8]
1 | CC[C@H]1OC(=O)[C@H](C)[C@@H](O[C@H]2C[C@@](C)(OC)[C@@H](O)[C@H](C)O2)[C@H](C)[C@@H](O[C@@H]2O[C@H](C)C[C@H](N(C)C)[C@H]2O)[C@](C)(O)C[C@@H](C)/C(=N\OCCCCCCNCCCCCCNCc2ccccc2)[C@H](C)[C@@H](O)[C@]1(C)O [Compound 6, Erythromycin A (E)-9-[0-[6-[6-(phenylmethylamino)hexylamino]hexyl]oxime]] | 16 µg/mL (≈ 15.4 µM) | 0.0312 µg/mL | 0.25 µg/mL (≈ 0.241 µM) | 4 µg/mL (≈ 3.86 µM) | 8 µg/mL (≈ 7.71 µM) | 0.0312 µg/mL | 0.0156 µg/mL | 0.0156 µg/mL | – | – | – | – | – | – | – | –
2 | CC[C@H]1OC(=O)[C@H](C)[C@@H](O[C@H]2C[C@@](C)(OC)[C@@H](O)[C@H](C)O2)[C@H](C)[C@@H](O[C@@H]2O[C@H](C)C[C@H](N(C)C)[C@H]2O)[C@](C)(O)C[C@@H](C)/C(=N\OCCNCCCCCCNCc2cc(Cl)cc(Cl)c2O)[C@H](C)[C@@H](O)[C@]1(C)O [Compound 32, Erythromycin A (E)-9-[0-[2-[6-[(3,5-dichloro-2-hydroxyphenyl)methylamino]hexylamino]ethyl]oxime]] | 16 µg/mL (≈ 15 µM) | 0.0312 µg/mL | 0.5 µg/mL (≈ 0.469 µM) | 4 µg/mL (≈ 3.75 µM) | 2 µg/mL (≈ 1.88 µM) | 0.0625 µg/mL | 0.0156 µg/mL | 0.0625 µg/mL | – | – | – | – | – | – | – | –
3 | CC[C@H]1OC(=O)[C@H](C)[C@@H](O[C@H]2C[C@@](C)(OC)[C@@H](O)[C@H](C)O2)[C@H](C)[C@@H](O[C@@H]2O[C@H](C)C[C@H](N(C)C)[C@H]2O)[C@](C)(O)C[C@@H](C)/C(=N\OCCNCCCCCCNCc2ccccc2O)[C@H](C)[C@@H](O)[C@]1(C)O [Compound 24, Erythromycin A (E)-9-[0-[2-[6-[(2-hydroxyphenyl)methylamino]hexylamino]ethyl]oxime]] | 8 µg/mL (≈ 8.02 µM) | 0.0156 µg/mL | 0.25 µg/mL (≈ 0.251 µM) | 4 µg/mL (≈ 4.01 µM) | 4 µg/mL (≈ 4.01 µM) | 0.0156 µg/mL | 0.0039 µg/mL | 0.0078 µg/mL | – | – | – | – | – | – | – | –
4 | CC[C@H]1OC(=O)[C@H](C)[C@@H](O[C@H]2C[C@@](C)(OC)[C@@H](O)[C@H](C)O2)[C@H](C)[C@@H](O[C@@H]2O[C@H](C)C[C@H](N(C)C)[C@H]2O)[C@](C)(O)C[C@@H](C)/C(=N\OCCCNCCCCCCNCc2ccccc2)[C@H](C)[C@@H](O)[C@]1(C)O [Compound 12, Erythromycin A (E)-9-[0-[3-[6-(phenylmethylamino)hexylamino]propyl]oxime]] | 32 µg/mL (≈ 32.1 µM) | 0.5 µg/mL | 0.25 µg/mL (≈ 0.251 µM) | 8 µg/mL (≈ 8.04 µM) | 16 µg/mL (≈ 16.1 µM) | 0.0625 µg/mL | 0.0312 µg/mL | 0.25 µg/mL | – | – | – | – | – | – | – | –
5 | Erythromycin A (E)-9-[0-[2-[N-ethyl-6-[N'-ethyl-N'-(2-phenylethyl)amino]hexylamino]hexyl])oxime] [Compound 2] | – | – | – | – | – | – | – | – | 64 µg/mL | 0.0312 µg/mL | 1 µg/mL | 16 µg/mL | 8 µg/mL | 0.0156 µg/mL | 0.0312 µg/mL | 0.0156 µg/mL
6 | CC[C@H]1OC(=O)[C@H](C)[C@@H](O[C@H]2C[C@@](C)(OC)[C@@H](O)[C@H](C)O2)[C@H](C)[C@@H](O[C@@H]2O[C@H](C)C[C@H](N(C)C)[C@H]2O)[C@](C)(O)C[C@@H](C)/C(=N\OCCCCCCNCCCNCc2ccccc2)[C@H](C)[C@@H](O)[C@]1(C)O [Compound 7, Erythromycin A (E)-9-[0-[6-[3-(phenylmethylamino)propylamino]hexyl]oxime]] | 16 µg/mL (≈ 16.1 µM) | 0.0625 µg/mL | 0.5 µg/mL (≈ 0.502 µM) | 4 µg/mL (≈ 4.02 µM) | 4 µg/mL (≈ 4.02 µM) | 0.0312 µg/mL | 0.0156 µg/mL | 0.0625 µg/mL | – | – | – | – | – | – | – | –
7 | CC[C@H]1OC(=O)[C@H](C)[C@@H](O[C@H]2C[C@@](C)(OC)[C@@H](O)[C@H](C)O2)[C@H](C)[C@@H](O[C@@H]2O[C@H](C)C[C@H](N(C)C)[C@H]2O)[C@](C)(O)C[C@@H](C)/C(=N\OCCNCCCCCCCCNCc2ccccc2)[C@H](C)[C@@H](O)[C@]1(C)O [Compound 9, Erythromycin A (E)-9-[0-[2-[8-(phenylmethyiamino)octylamino]ethyl]oxime]] | 16 µg/mL (≈ 15.9 µM) | 0.0078 µg/mL | 0.25 µg/mL (≈ 0.248 µM) | 4 µg/mL (≈ 3.96 µM) | 4 µg/mL (≈ 3.96 µM) | 0.0078 µg/mL | 0.0039 µg/mL | 0.0078 µg/mL | – | – | – | – | – | – | – | –
8 | CC[C@H]1OC(=O)[C@H](C)[C@@H](O[C@H]2C[C@@](C)(OC)[C@@H](O)[C@H](C)O2)[C@H](C)[C@@H](O[C@@H]2O[C@H](C)C[C@H](N(C)C)[C@H]2O)[C@](C)(O)C[C@@H](C)/C(=N\OCCNCCCCCCNCc2cccc(O)c2)[C@H](C)[C@@H](O)[C@]1(C)O [Compound 25, Erythromycin A (E)-9-[0-[2-[6-[(3-hydroxyphenyl)methylamino]hexylamino]ethyl]oxime]] | 16 µg/mL (≈ 16 µM) | 0.25 µg/mL | 0.125 µg/mL (≈ 0.125 µM) | 8 µg/mL (≈ 8.02 µM) | 8 µg/mL (≈ 8.02 µM) | 0.125 µg/mL | 0.0312 µg/mL | 0.25 µg/mL | – | – | – | – | – | – | – | –
9 | CC[C@H]1OC(=O)[C@H](C)[C@@H](O[C@H]2C[C@@](C)(OC)[C@@H](O)[C@H](C)O2)[C@H](C)[C@@H](O[C@@H]2O[C@H](C)C[C@H](N(C)C)[C@H]2O)[C@](C)(O)C[C@@H](C)/C(=N\OCCNCCCCCCNCc2ccco2)[C@H](C)[C@@H](O)[C@]1(C)O [Compound 31] | 16 µg/mL (≈ 16.5 µM) | 0.0078 µg/mL | 0.5 µg/mL (≈ 0.515 µM) | 4 µg/mL (≈ 4.12 µM) | 4 µg/mL (≈ 4.12 µM) | 0.0078 µg/mL | 0.0039 µg/mL | 0.0078 µg/mL | – | – | – | – | – | – | – | –
10 | CC[C@H]1OC(=O)[C@H](C)[C@@H](O[C@H]2C[C@@](C)(OC)[C@@H](O)[C@H](C)O2)[C@H](C)[C@@H](O[C@@H]2O[C@H](C)C[C@H](N(C)C)[C@H]2O)[C@](C)(O)C[C@@H](C)/C(=N\OCCNCCCCCCNCc2ccc(O)cc2)[C@H](C)[C@@H](O)[C@]1(C)O [Compound 28, Erythromycin A (E)-9-[0-[2-[6-[(4-hydroxyphenyl)methylamino]hexylamino]ethyl]oxime]] | 32 µg/mL (≈ 32.1 µM) | 0.25 µg/mL | 0.125 µg/mL (≈ 0.125 µM) | 16 µg/mL (≈ 16 µM) | 16 µg/mL (≈ 16 µM) | 0.25 µg/mL | 0.125 µg/mL | 0.25 µg/mL | – | – | – | – | – | – | – | –
11 | CC[C@H]1OC(=O)[C@H](C)[C@@H](O[C@H]2C[C@@](C)(OC)[C@@H](O)[C@H](C)O2)[C@H](C)[C@@H](O[C@@H]2O[C@H](C)C[C@H](N(C)C)[C@H]2O)[C@](C)(O)C[C@@H](C)/C(=N\OCCCCCCNCCCCCNCc2ccccc2)[C@H](C)[C@@H](O)[C@]1(C)O [Compound 8, Erythromycin A (E)-9-[0-[6-[5-(phenylmethylamino)pentylamino]hexyl]oxime]] | 16 µg/mL (≈ 15.6 µM) | 0.5 µg/mL | 0.5 µg/mL (≈ 0.489 µM) | 4 µg/mL (≈ 3.91 µM) | 8 µg/mL (≈ 7.82 µM) | 0.0312 µg/mL | 0.0078 µg/mL | 0.25 µg/mL | – | – | – | – | – | – | – | –
12 | CC[C@H]1OC(=O)[C@H](C)[C@@H](O[C@H]2C[C@@](C)(OC)[C@@H](O)[C@H](C)O2)[C@H](C)[C@@H](O[C@@H]2O[C@H](C)C[C@H](N(C)C)[C@H]2O)[C@](C)(O)C[C@@H](C)/C(=N\OCCNCCCCCCNCc2ccc(O)c([N+](=O)[O-])c2)[C@H](C)[C@@H](O)[C@]1(C)O [Compound 36, Erythromycin A (E)-9-[0-[2-[6-[(4-hydroxy-3-nitrophenyl)methylamino]hexylamino]ethyl]oxime]] | 32 µg/mL (≈ 30.7 µM) | 0.0625 µg/mL | 0.5 µg/mL (≈ 0.48 µM) | 8 µg/mL (≈ 7.68 µM) | 16 µg/mL (≈ 15.4 µM) | 0.0625 µg/mL | 0.0078 µg/mL | 0.0625 µg/mL | – | – | – | – | – | – | – | –
13 | CC[C@H]1OC(=O)[C@H](C)[C@@H](O[C@H]2C[C@@](C)(OC)[C@@H](O)[C@H](C)O2)[C@H](C)[C@@H](O[C@@H]2O[C@H](C)C[C@H](N(C)C)[C@H]2O)[C@](C)(O)C[C@@H](C)/C(=N\OCCNCCCCCCNCc2ccc([N+](=O)[O-])c(O)c2)[C@H](C)[C@@H](O)[C@]1(C)O [Compound 37, Erythromycin A (E)-9-[0-[2-[6-[(3-hydroxy-4-nitrophenyl)methylamino]hexylamino]ethyl]oxime]] | 16 µg/mL (≈ 15.4 µM) | 0.0312 µg/mL | 0.5 µg/mL (≈ 0.48 µM) | 4 µg/mL (≈ 3.84 µM) | 8 µg/mL (≈ 7.68 µM) | 0.0312 µg/mL | 0.0039 µg/mL | 0.0312 µg/mL | – | – | – | – | – | – | – | –
